Read-outs that look alike come from different tables or passages of the source.
Tested on: hiPSC-CMs (iCell-Cardiomyocytes^2)
Procedure, shortened: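 Spontaneous field potentials and impedance recorded by MEA at 37°C, 5% CO2 in hiPSC-CM monolayers (50 K/well, fibronectin-coated), 5-min baseline before compound; final DMSO 0.1%. Values are percent change from baseline, mean ± SD, compared with DMSO by Wilcoxon-Mann Whitney, interpreted against DMSO tolerance intervals.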

- BR (beating rate), % change from baseline (1 µM, 2h): 4±4%
- FPD (field-potential duration), % change from baseline (1 µM, 2h): 0±2.5%
- FPDc (field-potential duration corrected by beat-rate), % change from baseline (1 µM, 2h): 0.8±1.8%
- BR (beating rate), % change from baseline (1 µM, 24h): 1±5%
- FPD (field-potential duration), % change from baseline (1 µM, 24h): 5±5.9%
- FPDc (field-potential duration corrected by beat-rate), % change from baseline (1 µM, 24h): 5.1±4.4%
- BR (beating rate), % change from baseline (1 µM, 48h): -7±4%
- FPD (field-potential duration), % change from baseline (1 µM, 48h): 11.5±3.8%
- FPDc (field-potential duration corrected by beat-rate), % change from baseline (1 µM, 48h): 8.8±2.5%
- BR (beating rate), % change from baseline (1 µM, 72h): -10±1%
- FPD (field-potential duration), % change from baseline (1 µM, 72h): 16±2.7%
- FPDc (field-potential duration corrected by beat-rate), % change from baseline (1 µM, 72h): 11.9±2.1%
- BR (beating rate), % change from baseline (1 µM, 96h): -15±4%
- FPD (field-potential duration), % change from baseline (1 µM, 96h): 22±4.6%
- FPDc (field-potential duration corrected by beat-rate), % change from baseline (1 µM, 96h): 15.1±3%
- BR (beating rate), % change from baseline (3 µM, 72h): -9±1%
- FPD (field-potential duration), % change from baseline (3 µM, 72h): 12±0.8%
- FPDc (field-potential duration corrected by beat-rate), % change from baseline (3 µM, 72h): 8.6±0.6%
- BR (beating rate), % change from baseline (3 µM, 96h): -18±2%
- FPD (field-potential duration), % change from baseline (3 µM, 96h): 20.9±1.6%
- FPDc (field-potential duration corrected by beat-rate), % change from baseline (3 µM, 96h): 13.5±1.6%
- BR (beating rate), % change from baseline (3 µM, 2h): 2±2%
- FPD (field-potential duration), % change from baseline (3 µM, 2h): 0.3±1.9%
- FPDc (field-potential duration corrected by beat-rate), % change from baseline (3 µM, 2h): 1.1±1.6%
- BR (beating rate), % change from baseline (3 µM, 24h): 1±3%
- FPD (field-potential duration), % change from baseline (3 µM, 24h): 4.3±0.8%
- FPDc (field-potential duration corrected by beat-rate), % change from baseline (3 µM, 24h): 4.6±1.6%
- BR (beating rate), % change from baseline (3 µM, 48h): -7±2%
- FPD (field-potential duration), % change from baseline (3 µM, 48h): 10.9±2.8%
- FPDc (field-potential duration corrected by beat-rate), % change from baseline (3 µM, 48h): 8.2±1.8%
- BR (beating rate), % change from baseline (10 µM, 2h): 2±2%
- FPD (field-potential duration), % change from baseline (10 µM, 2h): 0.3±1.7%
- FPDc (field-potential duration corrected by beat-rate), % change from baseline (10 µM, 2h): 1±1.6%
- BR (beating rate), % change from baseline (10 µM, 24h): 1±3%
- FPD (field-potential duration), % change from baseline (10 µM, 24h): 5.3±3.7%
- FPDc (field-potential duration corrected by beat-rate), % change from baseline (10 µM, 24h): 5.7±2.8%
- BR (beating rate), % change from baseline (10 µM, 48h): -7±3%
- FPD (field-potential duration), % change from baseline (10 µM, 48h): 13.1±5.3%
- FPDc (field-potential duration corrected by beat-rate), % change from baseline (10 µM, 48h): 10.3±4.5%
- BR (beating rate), % change from baseline (10 µM, 72h): -10±1%
- FPD (field-potential duration), % change from baseline (10 µM, 72h): 14.8±5.3%
- FPDc (field-potential duration corrected by beat-rate), % change from baseline (10 µM, 72h): 11.2±4.9%
- BR (beating rate), % change from baseline (10 µM, 96h): -17±1%
- FPD (field-potential duration), % change from baseline (10 µM, 96h): 23.4±6.5%
- FPDc (field-potential duration corrected by beat-rate), % change from baseline (10 µM, 96h): 16±5.7%
- BR (beating rate), % change from baseline (30 µM, 2h): 2±3%
- FPD (field-potential duration), % change from baseline (30 µM, 2h): 3.4±1.3%
- FPDc (field-potential duration corrected by beat-rate), % change from baseline (30 µM, 2h): 4±1.3%
- BR (beating rate), % change from baseline (30 µM, 24h): 1±3%
- FPD (field-potential duration), % change from baseline (30 µM, 24h): 7.4±4.1%
- FPDc (field-potential duration corrected by beat-rate), % change from baseline (30 µM, 24h): 7.7±2.9%
- BR (beating rate), % change from baseline (30 µM, 48h): -7±1%
- FPD (field-potential duration), % change from baseline (30 µM, 48h): 13.9±3.1%
- FPDc (field-potential duration corrected by beat-rate), % change from baseline (30 µM, 48h): 11.4±2.7%
- BR (beating rate), % change from baseline (30 µM, 72h): -9±2%
- FPD (field-potential duration), % change from baseline (30 µM, 72h): 15.6±2%
- FPDc (field-potential duration corrected by beat-rate), % change from baseline (30 µM, 72h): 12.1±2.1%
- BR (beating rate), % change from baseline (30 µM, 96h): -16±2%
- FPD (field-potential duration), % change from baseline (30 µM, 96h): 23.3±2.4%
- FPDc (field-potential duration corrected by beat-rate), % change from baseline (30 µM, 96h): 16±2.1%
SMILES: C[C@H](CS)C(=O)N1CCC[C@H]1C(=O)O [Captopril]
- cessation of beating, flat T-wave or arrhythmic-like events (all concentrations tested, up to 96 h): no cessation of beating, flat T-wave or arrhythmic-like events were detected

Source: PMC10364322, “Evaluation of chronic drug-induced electrophysiological and cytotoxic effects using human-induced pluripotent stem cell-derived cardiomyocytes (hiPSC-CMs)” (Frontiers in Pharmacology, 2023)
